How the values were obtained:
[1] = target: DNA gyrase (Staphylococcus aureus, UniProt P0A0K8+P20831); test: Inhibition of Staphylococcus aureus DNA gyrase ATPase activity using pBR322 DNA as substrate after 30 mins by fluorescence polarization assay; format: protein-complex assay
[2] = target: DNA gyrase subunit B (Staphylococcus aureus, UniProt P0A0K8); test: Binding affinity to full length Staphylococcus aureus GyrB by STD-NMR spectroscopic analysis
[3] = Binding affinity to Escherichia coli ParE by STD-NMR Spectroscopic analysis

Chain of DNA gyrase subunit B (P0A0K8 whole entry): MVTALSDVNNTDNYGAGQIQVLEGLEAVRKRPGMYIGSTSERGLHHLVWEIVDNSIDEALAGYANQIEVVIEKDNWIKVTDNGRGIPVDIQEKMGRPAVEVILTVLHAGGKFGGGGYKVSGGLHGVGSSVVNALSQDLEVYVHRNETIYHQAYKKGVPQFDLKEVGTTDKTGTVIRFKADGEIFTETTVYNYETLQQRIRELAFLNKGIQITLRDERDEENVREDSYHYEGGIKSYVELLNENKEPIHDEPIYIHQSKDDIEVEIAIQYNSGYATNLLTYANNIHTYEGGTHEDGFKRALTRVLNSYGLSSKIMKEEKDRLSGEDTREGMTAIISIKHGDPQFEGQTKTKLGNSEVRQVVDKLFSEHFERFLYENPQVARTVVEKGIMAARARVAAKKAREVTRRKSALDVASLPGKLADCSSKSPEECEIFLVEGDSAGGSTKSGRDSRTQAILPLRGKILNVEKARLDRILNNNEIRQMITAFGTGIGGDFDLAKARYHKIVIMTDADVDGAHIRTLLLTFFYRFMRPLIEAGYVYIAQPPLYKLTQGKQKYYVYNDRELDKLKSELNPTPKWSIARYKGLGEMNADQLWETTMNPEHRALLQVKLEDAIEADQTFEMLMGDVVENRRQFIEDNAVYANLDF
Chain of DNA gyrase (P0A0K8 whole entry): as above
Chain of DNA gyrase (P20831 whole entry): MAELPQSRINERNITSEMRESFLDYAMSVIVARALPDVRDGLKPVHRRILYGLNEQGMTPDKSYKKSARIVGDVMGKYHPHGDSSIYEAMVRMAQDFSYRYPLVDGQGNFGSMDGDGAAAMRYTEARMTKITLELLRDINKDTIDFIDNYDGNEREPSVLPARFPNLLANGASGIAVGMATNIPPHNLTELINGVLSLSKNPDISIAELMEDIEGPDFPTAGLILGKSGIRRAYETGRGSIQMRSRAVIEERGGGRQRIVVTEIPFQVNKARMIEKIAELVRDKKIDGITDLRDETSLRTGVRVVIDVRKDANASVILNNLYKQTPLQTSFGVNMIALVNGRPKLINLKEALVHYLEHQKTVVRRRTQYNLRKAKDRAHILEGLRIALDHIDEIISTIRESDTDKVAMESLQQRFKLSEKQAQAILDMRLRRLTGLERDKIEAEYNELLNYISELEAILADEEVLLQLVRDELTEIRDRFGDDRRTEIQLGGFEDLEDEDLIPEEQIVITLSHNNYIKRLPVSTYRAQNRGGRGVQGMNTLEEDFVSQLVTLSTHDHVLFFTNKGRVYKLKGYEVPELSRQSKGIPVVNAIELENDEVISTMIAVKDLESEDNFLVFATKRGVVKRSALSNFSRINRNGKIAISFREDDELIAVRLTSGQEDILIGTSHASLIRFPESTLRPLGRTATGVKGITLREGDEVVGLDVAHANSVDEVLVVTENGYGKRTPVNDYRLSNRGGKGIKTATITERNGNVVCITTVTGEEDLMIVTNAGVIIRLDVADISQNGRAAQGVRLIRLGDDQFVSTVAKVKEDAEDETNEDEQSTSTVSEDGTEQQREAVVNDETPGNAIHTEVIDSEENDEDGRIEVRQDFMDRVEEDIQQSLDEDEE

SMILES: O=c1ccc2c(-c3cnc(-c4cccnc4)s3)n[nH]c2[nH]1
- IC50 [1]: 0.265 µM
- IC50 [2]: 50 µM

SMILES: Nc1nc(O)cc(-c2ccccc2)n1
- IC50 [3]: Not Active
- IC50 [2]: 50 µM

SMILES: CCCC(=O)Nc1sccc1C(N)=O
- IC50 ([3]; read-out: IC50): 50 µM
- IC50 [2]: 50 µM

SMILES: Cc1cc(=O)[nH]c2[nH]nc(-c3cnc(-c4cccnc4)s3)c12
- IC50 [1]: 3.25 µM
- IC50 [2]: 50 µM

SMILES: O=c1[nH]cnc2scc(-c3cccs3)c12
- IC50 [2]: 50 µM

SMILES: Cc1cc(O)[nH]c2nnc(-c3ccccc3)c1-2
- IC50 [3]: Not Active
- IC50 [2]: 840 µM

SMILES: Cc1n[nH]c2c1C(c1ccccc1F)CC(=O)N2 (configuration not stated)
- IC50 [3]: Not Active
- IC50 [2]: 840 µM

SMILES: O=C1Nc2ccccc2/C1=C\c1cccnc1
- IC50 ([3]; read-out: IC50): 50 µM
- IC50 [2]: 840 µM

SMILES: O=c1cc(-c2ccccc2)c2c(-c3cnc(-c4cccnc4)s3)n[nH]c2[nH]1
- IC50 [1]: 1.32 µM
- IC50 [2]: 50 µM
